Test results taken from patent publication US4134980A, “Phenylalkylamino-alkyl derivatives of quinazolinone and phthalazinone” (Boehringer Ingelheim GmbH, priority 1976, dated 1979).
Structures can show the parent of a compound that is named as a salt.

What was measured:
heart rate [1] = test: Effect on heart rate in anesthetized dogs (Table II); format: in vivo
heart rate [2] = test: Effect on heart rate in anesthetized cats (Table I); format: in vivo
[3] = LD50 in mice, observation time of 14 days; conditions: mouse, in vivo, iv, observation time of 14 days
From the text: Additionally, it should be noted that at all dosage levels the test compounds were tolerated very well and produced no toxic side-effects.

SMILES | Decrease in heart rate (heart rate [1]; 0.25 mg/kg i.v.) | Duration of Effective action (heart rate [1]; 0.25 mg/kg i.v.) | Decrease in heart rate (heart rate [1]; 1.0 mg/kg i.v.) | Duration of Effective action (heart rate [1]; 1.0 mg/kg i.v.) | Decrease in heart rate (heart rate [2]; 0.5 mg/kg i.v.) | Duration of Effective action (heart rate [2]; 0.5 mg/kg i.v.) | Decrease in heart rate (heart rate [2]; 1.0 mg/kg i.v.) | Duration of Effective action (heart rate [2]; 1.0 mg/kg i.v.) | Decrease in heart rate (heart rate [2]; 2.0 mg/kg i.v.) | Duration of Effective action (heart rate [2]; 2.0 mg/kg i.v.) | further results
COc1ccc(CCN(C)CCCn2nc(C)c3cc(OC)c(OC)cc3c2=O)cc1.Cl [B, 1-[4-methyl-6,7-dimethoxy-1(2H)-phthalazinone-2-yl]-3-[N-methyl-N-(2-(4-methoxyphenyl)-ethyl)-amino]-propane hydrochloride] | -6 beats/minute | 24 min | -23 beats/minute | 46 min |  |  |  |  |  |  | 
COc1ccc(CCN(C)CCCn2ncc3cc(OC)c(OC)cc3c2=O)cc1.Cl [D, 1-[6,7-dimethoxy-1(2H)-phthalazinone-2-yl]-3-[N-methyl-N-(2-(4-methoxyphenyl)-ethyl)-amino]-propane hydrochloride] |  |  |  |  | -6 beats/minute | 10 min | -13 beats/minute | 25 min | -14 beats/minute | 25 min | 
COc1ccc(CCN(C)CCCn2nc(C)c3cc(OC)c(OC)cc3c2=O)cc1OC.Cl [A, 1-[4-methyl-6,7-dimethoxy-1(2H)-phthalazinone-2-yl]-3-[N-methyl-N-(2-(3,4-dimethoxyphenyl)-ethyl)-amino]-propane hydrochloride] | -10 beats/minute | 17 min | -16 beats/minute | 24 min | -16 beats/minute | > 50 min | -23 beats/minute | > 70 min | -37 beats/minute | > 70 min | Decrease in heart rate (heart rate [1]; 0.5 mg/kg i.v.): -12 beats/minute; Duration of Effective action (heart rate [1]; 0.5 mg/kg i.v.): 15 min; LD50 at 336 h [3]: 63 mg/kg; Decrease in heart rate (heart rate [2]; 2.0 mg/kg i.d.): -25 beats/minute; Duration of Effective action (heart rate [2]; 2.0 mg/kg i.d.): > 74 min; Decrease in heart rate (heart rate [2]; 4.0 mg/kg i.d.): -34 beats/minute; Duration of Effective action (heart rate [2]; 4.0 mg/kg i.d.): > 60 min; Decrease in heart rate (heart rate [2]; 10.0 mg/kg i.d.): -41 beats/minute; Duration of Effective action (heart rate [2]; 10.0 mg/kg i.d.): > 50 min
COc1ccc(CCN(C)CCCn2nc(C(C)C)c3cc(OC)c(OC)cc3c2=O)cc1OC [C, 1-[4-isopropyl-6,7-dimethoxy-1(2H)-phthalizinone-2-yl]-3-[N-methyl-N-(2-(3,4-dimethoxyphenyl)-ethyl)-amino]-propane hydrochloride] |  |  | -10 beats/minute | 17 min |  |  |  |  |  |  | Decrease in heart rate (heart rate [1]; 2.0 mg/kg i.v.): -29 beats/minute; Duration of Effective action (heart rate [1]; 2.0 mg/kg i.v.): 10 min
COc1ccc(CCN(C)CCn2nc(C)c3cc(OC)c(OC)cc3c2=O)cc1OC [E, 1-[4-methyl-6,7-dimethoxy-1(2H)-phthalizinone-2-yl]-3-[N-methyl-N-(2-(3,4-dimethoxyphenyl)-ethyl)-amino]-ethane hydrochloride] |  |  |  |  |  |  | -10 beats/minute | 9 min | -13 beats/minute | 10 min | 
